Patent US20090045056A1, “Stable three enzyme creatinine biosensor” (priority 2004, published 2009)
Values belong to the compound of their own block, whether it stands above or below them.

What was measured:
sarcosine oxidase [1] = biological target: T1, sarcosine oxidase (Bacillus sp., UniProt P40859); conditions: cited from earlier work; for Ki: inhibitor of sarcosine oxidase
T1 sequence (P40859 1-390): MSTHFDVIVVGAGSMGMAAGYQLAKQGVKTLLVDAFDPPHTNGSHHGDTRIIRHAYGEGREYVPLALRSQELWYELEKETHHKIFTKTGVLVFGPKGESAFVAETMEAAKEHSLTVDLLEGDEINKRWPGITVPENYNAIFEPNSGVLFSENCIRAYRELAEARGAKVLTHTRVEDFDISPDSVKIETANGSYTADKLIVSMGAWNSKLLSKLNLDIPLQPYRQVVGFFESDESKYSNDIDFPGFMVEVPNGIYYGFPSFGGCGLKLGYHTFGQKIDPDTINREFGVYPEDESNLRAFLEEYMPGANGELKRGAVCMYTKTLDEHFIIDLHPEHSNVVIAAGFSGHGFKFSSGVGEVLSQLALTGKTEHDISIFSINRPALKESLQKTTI

[2] = test system: creatine amidinohydrolase; assay: Additives to prevent silver inhibition of creatine amidinohydrolase; assay type: biochemical, Actinobacilus sp.; conditions: 50 mM additive, pre-incubation
Description: Creatine amidinohydrolase (1.0 mg/ml) was prepared in solution with either 50 mM EDT A, 50 mM EGT A, 50 mM mercaptoethanol, 50 mM DTT or 50 mM cysteine with 20 mM Tris, pH 7.5.

[3] = test system: creatine amidinohydrolase; conditions: 5-100 μM silver nitrate
Description: Creatine amidinohydrolase activity was monitored using a colorimetric assay that measures urea formation from the hydrolysis of creatine (Tsuchida and Yoda, Clin. Chem. 29:51-55 (1983)). An enzyme solution (0.1 mL) was incubated with a mixture (0.90 mL) of 100 mM creatine in sodium phosphate buffer (50 mM, pH 7.5) at 37° C. for 10 minutes. The reaction was stopped by adding 2.0 mL of a solution containing Ehrlich's reagent (2.0 g of p-dimethyl aminobenzaldehyde in 100 mL of dimethyl sulfoxide plus 15 mL of concentrated HCl). The solution was incubated for 20 minutes at room temperature and the absorbance at 435 nm was measured. One unit was defined as the amount of enzyme that catalyzes the hydrolysis of 1 μmol of substrate per minute.
Samples were removed periodically and assayed using the end point assay. […] After 10 minutes of incubation, the stop solution (p-dimethyl benzaldehyde solution) was added.

[4] = test system: creatinine amidohydrolase; conditions: silver nitrate from 1 nM, 5 min to 1 hr incubation
Description: An enzyme solution (0.1 mL) was incubated with a mixture (0.90 mL) of 100 mM creatine in mM soditim phosphate (pH 7.5) at 37° C. for 10 minutes. After 10 minutes, the creatine/enzyme mixture (0.1 mL) was added to 0.5 M sodium hydroxide (1.9 mL) and 1% picric acid (1.0 mL). This solution was incubated for 20 minutes at room temperature and the absorbance at 520 nm was measured. One unit was defined as the amount of enzyme which catalyzed the formation of 1 μmol of creatinine per minute.
Samples were removed periodically and assayed using the end point assay.

sarcosine oxidase [5] = biological target: sarcosine oxidase (Arthrobacter sp., UniProt P40873); conditions: 1 nM to 1 mM silver nitrate, various incubation times, residual activity assayed in absence of silver
Sequence of sarcosine oxidase (Arthrobacter sp., UniProt P40873) (P40873 whole entry): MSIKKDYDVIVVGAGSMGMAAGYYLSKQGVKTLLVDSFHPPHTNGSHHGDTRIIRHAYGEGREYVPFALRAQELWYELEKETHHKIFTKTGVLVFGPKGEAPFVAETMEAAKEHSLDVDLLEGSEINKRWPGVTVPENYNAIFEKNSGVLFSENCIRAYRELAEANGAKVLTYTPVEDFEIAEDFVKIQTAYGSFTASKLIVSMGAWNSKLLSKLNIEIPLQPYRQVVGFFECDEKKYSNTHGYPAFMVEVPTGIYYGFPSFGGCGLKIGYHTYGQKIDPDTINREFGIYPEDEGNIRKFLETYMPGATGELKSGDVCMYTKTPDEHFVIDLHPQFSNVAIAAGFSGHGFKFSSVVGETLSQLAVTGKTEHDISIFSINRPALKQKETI
Description: Typically, an enzyme solution (0.05 mL) was incubated with a mixture (1.0 mL total) of 95 mM sarcosine, 0.47 mM 4-aminoantipyrene, 2 mM phenol, 0.045% Triton X-100, 50 mM sodium phosphate (pH 8.0) and 5 units/mL of horseradish peroxidase at 37° C. for 10 minutes. The reaction was terminated by addition of 2.0 mL of 0.25% SDS solution and the absorbance at 500 nm was measured. One unit was defined as the amount of enzyme that catalyzed the oxidation of 1). mol of substrate per minute.
Samples were removed periodically and assayed using the end point assay for sarcosine oxidase activity.

Structure (SMILES): CSCC(=O)O [(methylthio)acetic acid]
Ki (sarcosine oxidase [1]): 2600 µM

prevention of silver inhibition of creatine amidinohydrolase [2]: effectively prevented
Structure (SMILES): O[C@@H](CS)[C@@H](O)CS [DTT]

Structure (SMILES): O=C(O)c1ccc[nH]1 [Pyrrole-2-carboxylic acid]
Ki (sarcosine oxidase [1]): 1370 µM

prevention of silver inhibition of creatine amidinohydrolase [2]: effectively prevented
Structure (SMILES): N[C@@H](CS)C(=O)O [cysteine]

prevention of silver inhibition of creatine amidinohydrolase [2]: effectively prevented
Structure (SMILES): OCCS [mercaptoethanol]

Structure (SMILES): CNCC(=O)O [sarcosine]
Km (sarcosine oxidase [1]; native substrate of sarcosine oxidase): 600 µM

Structure (SMILES): O=[N+]([O-])[O-].[Ag+] [silver nitrate]
inhibition of creatine amidinohydrolase by silver ions [3]: completely inhibiting enzyme activity | inhibition of creatinine amidohydrolase by silver ions [4]: effective inhibitor of creatinine amidinohydrolase at high concentrations | inhibition of sarcosine oxidase by silver ions (sarcosine oxidase [5]): effective irreversible inhibitor
